Calls of active or inactive are those of the source.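 How the source made its calls: active means AC50 no more than ten times the top concentration tested, that is within one log above it; inconclusive means flat curve fit with activity between 30% and 70%, or invalid poor fit; inactive means AC50 beyond ten times the top tested dose.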
System: S. cerevisiae Mot1-301 ts growth rescue, BacTiter-Glo ATP luminescence
Assay: growth rescue of Mot1-301 ts yeast, confirmation, SUMOylation pathway inhibitor project, whole organism, S. cerevisiae, Mot1-301 ts mutant, luminescence, dose retest (AID 463204);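 further: growth at restrictive 38.5 degrees C of Mot1-301 OY566 strain; actives raise luminescence by restoring growth of the ts mutant at high temperature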

SMILES	AC50
O=C(NC1CCCCC1)c1n[nH]c2c1CCCCC2	> 42 µM (inactive)
O=c1[nH][nH]c(C(F)(F)F)c1C=NCc1cccs1	> 42 µM (inactive)
Cc1nnc(SCC(=O)NC(C)(C)C)n1NCc1ccc(Cl)cc1	> 42 µM (inactive)
O=C(OCC(=O)N1CCN(c2ccccc2)CC1)c1nc(Cl)ccc1Cl	> 42 µM (inactive)
O=C(NNS(=O)(=O)c1c(F)cc(F)c(Cl)c1F)C12CC3CC(CC(C3)C1)C2	3.45 µM
O=c1c2ccccc2c2ccccc2c(=O)n1-c1ccccc1	> 42 µM (inactive)
Cc1ccc(NC(=O)CC2CS(=O)(=O)CC2CC(=O)Nc2ccc(C)c(C)c2)cc1C (stereo unspecified)	> 42 µM (inactive)
CC(=O)Nc1ccc(C(=O)NCCCOC(C)C)cc1	> 42 µM (inactive)
COc1ccccc1-c1nnc(SCC(=O)NC2CCS(=O)(=O)C2)n1N (stereo unspecified)	> 42 µM (inactive)
O=C(NCC1CCN(Cc2ccccc2Cl)CC1)Nc1ccccc1F	> 42 µM (inactive)
CCOC(=O)C(C)(C)Sc1nc2c(cnn2-c2ccc(C)cc2)c(=O)[nH]1	> 42 µM (inactive)
Cc1ccc(-c2nc(-c3cccnc3)sc2CC(=O)O)cc1	> 42 µM (inactive)
CCCCc1nnc(NC(=O)CSc2nc(O)c(-c3ccccc3)c(=O)[nH]2)s1	> 42 µM (inactive)
CC(C)(C)C(=O)NC1CCN(CC(=O)Nc2ccc3c(c2)OCO3)CC1	> 42 µM (inactive)
CC(C)c1ccc(C2C(C(=O)c3ccco3)=C(O)C(=O)N2CCN2CCOCC2)cc1 (stereo unspecified)	> 42 µM (inactive)
O=C(CCc1nc2sc3c(c2c(=O)[nH]1)CCCC3)N1CCN(c2ccccc2)CC1	> 42 µM (inactive)
NC(=O)C1CCN(C2CC(=O)N(c3ccc(F)c(Cl)c3)C2=O)CC1 (stereo unspecified)	7.8 µM
Cc1cc2c(C)ccc(C)c2nc1SCC(=O)c1cccs1	> 42 µM (inactive)
CC(=O)N/C(=C\c1ccccc1)C(=O)OCC(=O)c1ccccc1	> 42 µM (inactive)
O=C(Cc1cccs1)Nc1nnc(-c2ccncc2)s1	> 42 µM (inactive)
COc1ccc2cc(C(=O)Nc3ccc(Cl)cc3)sc(=O)c2c1OC	> 42 µM (inactive)
NC(=O)c1nsc(C(=O)N(Cc2ccc(F)cc2)C(C(=O)NC2CCCC2)c2ccco2)c1N (stereo unspecified)	> 42 µM (inactive)
CC(C)(C)c1ccc(C(=O)NCCC(=O)N2CCN(c3ncccn3)CC2)cc1	> 42 µM (inactive)
CN1CCCCC1=NCCCn1cnc2c1c(=O)n(C)c(=O)n2C	> 42 µM (inactive)

SMILES	AC50
CCSc1nc2ccccc2c(=O)n1C1CCOC(C)(C)C1 (stereo unspecified)	> 42 µM (inactive)
Cc1cc(-c2ccc(C(C)C)c(S(=O)(=O)N3CC(=O)Nc4ccccc43)c2)on1	> 42 µM (inactive)
O=C(NCC(c1cccs1)N1CCOCC1)c1ccccc1NS(=O)(=O)c1cc([N+](=O)[O-])ccc1Cl (stereo unspecified)	> 42 µM (inactive)
CC1(C)CC(=O)C2=C(C1)OC(N)=C(C#N)C21C(=O)N(CN2CCOCC2)c2ccccc21 (stereo unspecified)	> 42 µM (inactive)
COc1ccc(N2CCN(CCCNC(=O)C(=O)c3c(C)[nH]c4ccccc34)CC2)cc1	> 21 µM (inactive)
Oc1c(Br)cc(Br)cc1C=Nc1cccnc1	4.88 µM
Cc1ccc(C(=O)N/C(=C/c2ccccc2)C(=O)NCC2CCCO2)cc1 (stereo unspecified)	> 42 µM (inactive)
O=C(O)c1ccc(COc2c(F)c(F)cc(F)c2F)cc1	> 42 µM (inactive)
CN(C)C(=O)c1cc(C(=O)c2ccc(C(F)(F)F)cc2F)c[nH]1	> 42 µM (inactive)
COCCN(C(=O)C1CC1)c1nnc(-c2ccc(C)cc2)s1	> 42 µM (inactive)
CCc1cc2c(NCCO)ncnc2s1	> 42 µM (inactive)
CC(=O)c1ccc(Oc2cc(C)nc(N3CCOCC3)n2)cc1	> 42 µM (inactive)
COc1ccc2c(c1)OC[C@H]1[C@H]2N2C(=O)c3ccccc3NC(=O)[C@@]2(C)[C@H]1c1ccccc1	> 42 µM (inactive)
COc1ccc(OC)c(CCNC(=O)c2ccc3c(c2)N(Cc2ccc(F)cc2)CCS3)c1	> 42 µM (inactive)
Cc1ccc(/C=C2\SC(N3CCCC3)=NC2=O)cc1	> 42 µM (inactive)
C/C(=C\C(=O)N1CCc2ccccc21)C(=O)O	> 42 µM (inactive)
CCOc1ccc2nc(C(C)O)[nH]c2c1 (stereo unspecified)	> 42 µM (inactive)
CCCNCc1cc(OCC)c(OCC(N)=O)cc1Br	> 42 µM (inactive)
COc1ccccc1NC(=O)Nc1ccc(Cl)c(S(=O)(=O)Nc2ccccc2OC)c1	> 42 µM (inactive)
C=C(C)Cn1c(SCC(=O)N/N=C/c2ccccc2OCC(=O)O)nnc1-c1ccc(Br)cc1	> 42 µM (inactive)
O=C(O)c1c(C(=O)O)c(-c2ccc(F)cc2)n2c1CCC2	> 42 µM (inactive)
Cc1sc(-n2c(C)cc(C=C3C(=O)NC(=O)NC3=O)c2C)c(C#N)c1C	> 42 µM (inactive)
O=C(COC(=O)Cc1ccsc1)NC1CCCCCC1	> 42 µM (inactive)
CC(=O)Nc1nn(C)c2nc3ccc(C)cc3cc12	> 42 µM (inactive)

SMILES	AC50
CC(NC(=O)c1ccc(Cl)cc1)C(=O)N1CCCCC1 (stereo unspecified)	> 42 µM (inactive)
Cc1ccccc1-c1nnnn1C1CCS(=O)(=O)C1 (stereo unspecified)	> 42 µM (inactive)
Cc1ccc(S(=O)(=O)N(C)c2ccc(OC(=O)CN3C(=O)NC4(CCCC4)C3=O)cc2)cc1C	> 42 µM (inactive)
COc1cc2ccccc2cc1C(=O)Nc1ccc(CN2CCOCC2)cc1	> 42 µM (inactive)
CN(c1ccccc1C(=O)N1CCN(Cc2ccc3c(c2)OCO3)CC1)S(C)(=O)=O	> 42 µM (inactive)
Cc1ccc(-n2nc3c(=O)n(CCCC(=O)NCc4cccc(F)c4)nc(C)c3c2C)cc1	> 42 µM (inactive)
COc1cc2c(=O)n(-c3ccc(C)cc3)c(=O)n(CC(=O)c3ccc4c(c3)OCO4)c2cc1OC	> 42 µM (inactive)
COc1cccc(OC)c1OCC(O)CN1CCN(c2ccccc2)CC1 (stereo unspecified)	> 42 µM (inactive)
CCN(CC)c1nc2c(c(=O)[nH]c(=O)n2C)n1CCOc1ccccc1	> 42 µM (inactive)
O=C(Nc1cccc(N=Cc2cc(Br)cc(Br)c2O)c1)c1ccco1	2.81 µM
C/C=C(/C)C(=O)OC1c2c(ccc3ccc(=O)oc23)OC(C)(C)C1OC(=O)/C(C)=C\C (stereo unspecified)	> 42 µM (inactive)
O=C(Nc1ccncc1Cl)c1ccncc1	> 42 µM (inactive)
CCCc1cc(=O)oc2c3c(c4c(c12)OC(C)(C)C=C4)OC(C)C(C)C3O (stereo unspecified)	> 42 µM (inactive)
CN(C)CC/C=C1/c2cc(F)ccc2Sc2ccc(Cl)cc21	> 42 µM (inactive)
O=C(Nc1ncccn1)c1ccc(C(F)(F)F)cc1	> 42 µM (inactive)
CCOC(=O)N1CCN(C(=O)c2ccc(CS(=O)(=O)c3c(Cl)cccc3Cl)o2)CC1	> 42 µM (inactive)
O=C(N/N=C/c1cccc([N+](=O)[O-])c1)C1COc2ccccc2O1 (stereo unspecified)	> 42 µM (inactive)
CCc1nc2ccccc2c(C(=O)OC2CCCCC2=O)c1C (stereo unspecified)	> 42 µM (inactive)
CCCN1C(=O)c2ccc(C(=O)Nc3nccs3)cc2C1=O	> 42 µM (inactive)
CC1=C/C(=N\OS(=O)(=O)c2ccccc2)C(C(C)C)=CC1=O	0.86 µM
COc1ccc(N2CCN(C3CCCN(Cc4cccc(OC)c4)C3)CC2)cc1 (stereo unspecified)	> 42 µM (inactive)
CC(C)NC(=O)COc1ccc(S(=O)(=O)N(C)Cc2ccccc2)cc1	> 42 µM (inactive)
COc1ccc(-n2c(SCC(=O)NCC3CCCO3)nc3c(c2=O)SCC3)cc1OC (stereo unspecified)	> 42 µM (inactive)

From PubChem BioAssay AID463204 (Broad Institute, 2010)
